Test results: PMC7739374 (ACS chemical biology, 2020)
Where a SMILES comes first, the peptide text is derived from it. [ ]: non-standard residue; d: D form. β3hI = CC[C@H](C)[C@H](N)CC(=O)O; β3hE = N[C@@H](CCC(=O)O)CC(=O)O; β3hA = C[C@H](N)CC(=O)O

Key:
[1] = system: Ras activation and ERK signaling; details: cited from earlier work
[2] = Tryptic digestion, HPLC-based proteolytic stability assay; type: in vitro ADME
recombinant H-Ras = details: within range of full-length Sos; cited from earlier work
[3] = system: H358 (K-Ras G12C) lung cancer cells; test: MTT cell viability; type: cell-based; details: 72 hours
proteinase K = type: in vitro ADME
trypsin = test: Tryptic digestion, HPLC-based proteolytic stability assay; type: in vitro ADME

Compound	modulation of Ras activation and ERK signaling [1]	half-life ([2]; trypsin) [h]	affinity for recombinant H-Ras (recombinant H-Ras)	effect on cell viability, H358 [3]	fold increase in half-life with proteinase K (proteinase K) [fold]	fold increase in half-life, tryptic digestion (trypsin)	half-life ([2]; isolated enzyme trypsin) [h]
CC[C@H](C)[C@H](NC(=O)CN1C/C=C/CCC(=O)N[C@@H](Cc2ccccc2)C(=O)N[C@@H](CCC(=O)O)C1=O)C(=O)N[C@@H](Cc1ccc(O)cc1)C(=O)N[C@@H](CCCNC(=N)N)C(=O)N[C@@H](CC(C)C)C(=O)N[C@@H](CCC(=O)O)C(=O)N[C@@H](CC(C)C)C(=O)N[C@@H](CC(C)C)C(=O)N[C@@H](CCCCN)C(=O)N[C@@H](C)C(=O)N[C@@H](CCC(=O)O)C(=O)N[C@@H](CCC(=O)O)C(=O)N[C@@H](C)C(=O)N[C@@H](CC(N)=O)C(N)=O [HBSSOS]	concentration-dependent manner	3.1	micromolar affinity				
CC[C@H](C)[C@@H](CC(=O)N[C@@H](Cc1ccc(O)cc1)C(=O)N[C@@H](CCCNC(=N)N)C(=O)N[C@@H](CC(C)C)C(=O)N[C@@H](CCC(=O)O)CC(=O)N[C@@H](CC(C)C)C(=O)N[C@@H](CC(C)C)C(=O)N[C@@H](CCCCN)C(=O)N[C@@H](C)CC(=O)N[C@@H](CCC(=O)O)C(=O)N[C@@H](CCC(=O)O)C(=O)N[C@@H](C)C(=O)N[C@@H](CC(N)=O)C(N)=O)NC(=O)CN1C/C=C/CCCC(=O)N[C@@H](Cc2ccccc2)C(=O)N[C@@H](CCC(=O)O)C1=O [α3βHBSSOS]				impacts viability of H358 cells at higher concentrations	360	~ 6 fold	17.6
CC[C@H](C)[C@@H](CC(=O)N[C@@H](Cc1ccc(O)cc1)C(=O)N[C@@H](CCCNC(=N)N)C(=O)N[C@@H](CC(C)C)C(=O)N[C@@H](CCC(=O)O)CC(=O)N[C@@H](CC(C)C)C(=O)N[C@@H](CC(C)C)C(=O)N[C@@H](CCCCN)C(=O)N[C@@H](C)CC(=O)N[C@@H](CCC(=O)O)C(=O)N[C@@H](CCC(=O)O)C(=O)N[C@@H](C)C(=O)N[C@@H](CC(N)=O)C(N)=O)NC(=O)CNC(=O)[C@H](CCC(=O)O)NC(=O)[C@H](Cc1ccccc1)NC(C)=O [α3βUNCSOS] (Ac-FEG[β3hI]YRL[β3hE]LLK[β3hA]EEAN-NH2; N-terminus and C-terminus assumed)						8.5 fold	13.6
CC[C@H](C)[C@H](NC(=O)CNC(=O)[C@H](CCC(=O)O)NC(=O)[C@H](Cc1ccccc1)NC(C)=O)C(=O)N[C@@H](Cc1ccc(O)cc1)C(=O)N[C@@H](CCCNC(=N)N)C(=O)N[C@@H](CC(C)C)C(=O)N[C@@H](CCC(=O)O)C(=O)N[C@@H](CC(C)C)C(=O)N[C@@H](CC(C)C)C(=O)N[C@@H](CCCCN)C(=O)N[C@@H](C)C(=O)N[C@@H](CCC(=O)O)C(=O)N[C@@H](CCC(=O)O)C(=O)N[C@@H](C)C(=O)N[C@@H](CC(N)=O)C(N)=O [αUNCSOS] (Ac-FEGIYRLELLKAEEAN-NH2; N-terminus and C-terminus assumed)		1.6					
